From patent US6962922B2, “Alkynylated quinazoline compounds” (Warner-Lambert Company LLC, priority 2001, dated 2005) come the findings set out here.

Molecules are shown by their SMILES.

`CN(C)C(=O)c1ccc(Cn2c(=O)c3cc(C#CCc4ccccc4)ccc3n(C)c2=O)cc1` [Example 19, N,N-Dimethyl-4-[1-methyl-2,4-dioxo-6-(3-phenyl-prop-1-ynyl)-1,4-dihydro-2H-quinazolin-3-ylmethyl]-benzamide] gave a melting point of 171 to 173 °C.
Take `Cn1c(=O)n(Cc2ccc(CO)cc2)c(=O)c2cc(C#CCc3ccccc3)ccc21` [Example 24, 3-(4-Hydroxymethyl-benzyl)-1-methyl-6-(3-phenyl-prop-1-ynyl)-1H-quinazoline-2,4-dione]: the melting point lay within 161 to 164 °C.
The compound `Cn1c(=O)n(Cc2cccc(Cl)c2)c(=O)c2cc(C#CCc3ccccc3)ccc21` [Example 25, 3-(3-Chloro-benzyl)-1-methyl-6-(3-phenyl-prop-ynyl)-1H-quinazoline-2,4-dione] showed a melting point of 164 to 166 °C.
Compound `Cn1c(=O)n(Cc2cccc(F)c2)c(=O)c2cc(C#CCc3ccccc3)ccc21` [Example 26, 3-(3-Fluoro-benzyl)-1-methyl-6-(3-phenyl-prop-1-ynyl)-1H-quinazoline-2,4-dione] came in with a melting point of 143 to 144 °C.
The result for `Cn1c(=O)n(Cc2ccc(Cl)cc2)c(=O)c2cc(C#CCc3ccccc3)ccc21` [Example 27, 3-(4-Chloro-benzyl)-1-methyl-6-(3-phenyl-prop-1-ynyl)-1H-quinazoline-2,4-dione] reads 175 to 176 °C.
The result for `Cn1c(=O)n(Cc2ccc(F)c(F)c2)c(=O)c2cc(C#CCn3ccnc3)ccc21` [Example 29, 3-(3,4-Difluoro-benzyl)-6-(3-imidazol-1-yl-prop-1-ynyl)-1-methyl-1H-quinazoline-2,4-dione] reads 163 to 165 °C; that for `Cn1c(=O)n(Cc2ccc(F)c(F)c2)c(=O)c2cc(C#CCc3ccc(Cl)cc3)ccc21` [Example 30, 6-[3-(4-Chloro-phenyl)-prop-1-ynyl]-3-(3,4-difluoro-benzyl)-1-methyl-1H-quinazoline-2,4-dione], 163 to 165 °C; that for `Cn1c(=O)n(Cc2cccc(Cl)c2)c(=O)c2cc(C#CCc3ccc(Cl)cc3)ccc21` [Example 31, 3-(3-Chloro-benzyl)-6-[3-(4-chloro-phenyl)-prop-1-ynyl]-1-methyl-1H-quinazoline-2,4-dione], 169 to 171 °C.
The result for `Cn1c(=O)n(Cc2ccc(F)c(F)c2)c(=O)c2cc(C#CCn3ccnn3)ccc21` [Example 32, 3-(3,4-Difluoro-benzyl)-1-methyl-6-(3-[1,2,3]triazol-1-yl-prop-1-ynyl)-1H-quinazoline-2,4-dione] reads 167 to 169 °C; that for `Cn1c(=O)n(Cc2ccc(F)c(F)c2)c(=O)c2cc(C#CCn3cncn3)ccc21` [Example 33, 3-(3,4-Difluoro-benzyl)-1-methyl-6-(3-[1,2,4]triazol-1-yl-prop-1-ynyl)-1H-quinazoline-2,4-dione], 185 to 187 °C; that for `Cn1c(=O)n(Cc2ccc(Cl)c(Cl)c2)c(=O)c2cc(C#CCn3cncn3)ccc21` [Example 34, 3-(3,4-Dichloro-benzyl)-1-methyl-6-(3-[1,2,4]triazol-1-yl-prop-1-ynyl)-1H-quinazoline-2,4-dione], 171 to 172 °C.
